Experimental data taken from PubChem BioAssay AID2060495 (Molecular Pharmacology Branch, DTP, NCI, 2025).
One block for each compound: values may come before it.

Tested on: 521955-158-R2-J5-PDC complex spheroid viability
Test: Anticancer human tumor 521955-158-R2-J5-PDC patient-derived pancreatic carcinoma cell line growth inhibition [GQUAD]
Details: for IC50: curve of first compound; for viability, T/C: stronger effect = lower value
Summary of the method: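 Tumor cells were grown as complex spheroids with HUVEC endothelial cells and mesenchymal stem cells as stroma. G-quadruplex stabilizers were combined with targeted agents over half-log dilutions from near the clinical Cmax, or from 10 microM.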

[1] = second compound 0.0316 µM, first compound 0.0316 µM
[2] = second compound 0.0316 µM, first compound 0.1 µM
[3] = second compound 0.0316 µM, first compound 0.316 µM
[4] = second compound 0.0316 µM, first compound 1 µM
[5] = second compound 0.0316 µM, first compound 3.16 µM
[6] = second compound 0.0316 µM, first compound 10 µM
[7] = second compound 0.1 µM, first compound 0.0316 µM
[8] = second compound 0.1 µM, first compound 0.1 µM
[9] = second compound 0.1 µM, first compound 0.316 µM
[10] = second compound 0.1 µM, first compound 1 µM
[11] = second compound 0.1 µM, first compound 3.16 µM
[12] = second compound 0.1 µM, first compound 10 µM
[13] = second compound 0.316 µM, first compound 0.0316 µM
[14] = second compound 0.316 µM, first compound 0.1 µM
[15] = second compound 0.316 µM, first compound 0.316 µM
[16] = second compound 0.316 µM, first compound 1 µM
[17] = second compound 0.316 µM, first compound 3.16 µM
[18] = second compound 0.316 µM, first compound 10 µM
[19] = second compound 1 µM, first compound 0.0316 µM
[20] = second compound 1 µM, first compound 0.1 µM
[21] = second compound 1 µM, first compound 0.316 µM
[22] = second compound 1 µM, first compound 1 µM
[23] = second compound 1 µM, first compound 3.16 µM
[24] = second compound 1 µM, first compound 10 µM
[25] = second compound 3.16 µM, first compound 0.0316 µM
[26] = second compound 3.16 µM, first compound 0.1 µM
[27] = second compound 3.16 µM, first compound 0.316 µM
[28] = second compound 3.16 µM, first compound 1 µM
[29] = second compound 3.16 µM, first compound 3.16 µM
[30] = second compound 3.16 µM, first compound 10 µM
[31] = second compound 10 µM, first compound 0.0316 µM
[32] = second compound 10 µM, first compound 0.1 µM
[33] = second compound 10 µM, first compound 0.316 µM
[34] = second compound 10 µM, first compound 1 µM
[35] = second compound 10 µM, first compound 3.16 µM
[36] = second compound 10 µM, first compound 10 µM
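Note: spheroids exposed to agents for one week before reading.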
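Throughout, for viability, T/C: 100% = DMSO vehicle control viability.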

IC50 (second compound 0.0316 µM): 9260 nM | IC50 (second compound 0.1 µM): > 10000 nM | IC50 (second compound 0.316 µM): < 31.6 nM | IC50 (second compound 1 µM): < 31.6 nM | IC50 (second compound 3.16 µM): < 31.6 nM | IC50 (second compound 10 µM): < 31.6 nM
SMILES: CCCS(=O)(=O)Nc1ccc(F)c(C(=O)c2c[nH]c3ncc(-c4ccc(Cl)cc4)cc23)c1F + Cc1cnc(CNC(=O)c2c(=O)c3ccc(N4CCCN(C)CC4)nc3n3c2sc2ccccc23)cn1
viability, T/C [1]: 79.5% | viability, T/C [2]: 63.5% | viability, T/C [3]: 113% | viability, T/C [4]: 113% | viability, T/C [5]: 109% | viability, T/C [6]: 46.8% | viability, T/C [7]: 52.4% | viability, T/C [8]: 69.6% | viability, T/C [9]: 59.4% | viability, T/C [10]: 64% | viability, T/C [11]: 61.8% | viability, T/C [12]: 39% | viability, T/C [13]: 32% | viability, T/C [14]: 37.3% | viability, T/C [15]: 27.1% | viability, T/C [16]: 32.6% | viability, T/C [17]: 35.7% | viability, T/C [18]: 26.4% | viability, T/C [19]: 17.8% | viability, T/C [20]: 18.2% | viability, T/C [21]: 17.9% | viability, T/C [22]: 18.9% | viability, T/C [23]: 24.2% | viability, T/C [24]: 16.8% | viability, T/C [25]: 12.7% | viability, T/C [26]: 14.3% | viability, T/C [27]: 16.8% | viability, T/C [28]: 16.1% | viability, T/C [29]: 20.7% | viability, T/C [30]: 0.32% | viability, T/C [31]: 9.58% | viability, T/C [32]: 16.2% | viability, T/C [33]: 16.9% | viability, T/C [34]: 18.7% | viability, T/C [35]: 21.4% | viability, T/C [36]: 0.33%

IC50 (second compound 0.0316 µM): > 10000 nM | IC50 (second compound 0.1 µM): > 10000 nM | IC50 (second compound 0.316 µM): < 31.6 nM | IC50 (second compound 1 µM): < 31.6 nM | IC50 (second compound 3.16 µM): < 31.6 nM | IC50 (second compound 10 µM): < 31.6 nM
SMILES: COc1ncnc(C2CC2)c1-c1ncc2cnn(Cc3ccc(-c4nc(C(F)(F)F)cn4C(C)C)cc3)c2n1 + Cc1cnc(CNC(=O)c2c(=O)c3ccc(N4CCCN(C)CC4)nc3n3c2sc2ccccc23)cn1
viability, T/C [1]: 92.4% | viability, T/C [2]: 73.3% | viability, T/C [3]: 96.7% | viability, T/C [4]: 71.9% | viability, T/C [5]: 94.3% | viability, T/C [6]: 85.5% | viability, T/C [7]: 58% | viability, T/C [8]: 58.6% | viability, T/C [9]: 53.1% | viability, T/C [10]: 55.9% | viability, T/C [11]: 57.2% | viability, T/C [12]: 55.2% | viability, T/C [13]: 30.3% | viability, T/C [14]: 31.6% | viability, T/C [15]: 31.4% | viability, T/C [16]: 31.5% | viability, T/C [17]: 28.1% | viability, T/C [18]: 25.6% | viability, T/C [19]: 19.3% | viability, T/C [20]: 17.7% | viability, T/C [21]: 17% | viability, T/C [22]: 17.4% | viability, T/C [23]: 18.8% | viability, T/C [24]: 16.6% | viability, T/C [25]: 14.5% | viability, T/C [26]: 14.3% | viability, T/C [27]: 16.4% | viability, T/C [28]: 13.2% | viability, T/C [29]: 13.7% | viability, T/C [30]: 12.8% | viability, T/C [31]: 13% | viability, T/C [32]: 11.2% | viability, T/C [33]: 9.95% | viability, T/C [34]: 13.9% | viability, T/C [35]: 6.73% | viability, T/C [36]: 6.37%

IC50 (second compound 0.0316 µM): 233 nM | IC50 (second compound 0.1 µM): 167 nM | IC50 (second compound 0.316 µM): < 31.6 nM | IC50 (second compound 1 µM): < 31.6 nM | IC50 (second compound 3.16 µM): < 31.6 nM | IC50 (second compound 10 µM): < 31.6 nM
SMILES: O=C(NO)c1cnc(N2CCN(S(=O)(=O)c3ccc4ccccc4c3)CC2)nc1 + Cc1cnc(CNC(=O)c2c(=O)c3ccc(N4CCCN(C)CC4)nc3n3c2sc2ccccc23)cn1
viability, T/C [1]: 106% | viability, T/C [2]: 78.9% | viability, T/C [3]: 42.1% | viability, T/C [4]: 5.64% | viability, T/C [5]: 0.04% | viability, T/C [6]: 0.1% | viability, T/C [7]: 53.6% | viability, T/C [8]: 51.4% | viability, T/C [9]: 47% | viability, T/C [10]: 6.79% | viability, T/C [11]: 0.05% | viability, T/C [12]: 0.08% | viability, T/C [13]: 27.5% | viability, T/C [14]: 36.1% | viability, T/C [15]: 29.8% | viability, T/C [16]: 1.02% | viability, T/C [17]: 0.05% | viability, T/C [18]: 0.07% | viability, T/C [19]: 20.1% | viability, T/C [20]: 22.9% | viability, T/C [21]: 12.9% | viability, T/C [22]: 0.1% | viability, T/C [23]: 0.04% | viability, T/C [24]: 0.08% | viability, T/C [25]: 11.7% | viability, T/C [26]: 17.4% | viability, T/C [27]: 4.19% | viability, T/C [28]: 0.1% | viability, T/C [29]: 0.07% | viability, T/C [30]: 0.11% | viability, T/C [31]: 11.8% | viability, T/C [32]: 8.03% | viability, T/C [33]: 2.82% | viability, T/C [34]: 0.14% | viability, T/C [35]: 0.15% | viability, T/C [36]: 0.18%
